Experimental data reported in publication PMC8016166, “Identification of a Potent and Selective 5-HT1A Receptor Agonist with In Vitro and In Vivo Antinociceptive Activity” (ACS Chemical Neuroscience, 2020).

Legend:
5-HT1AR [1] = biological target: T1, 5-HT1AR (Rattus norvegicus, UniProt P19327); experiment: [35S]GTPγS functional 5-HT1A assay in rat hippocampal membranes; format: biochemical; conditions: read-out: 5-HT1A Emax (%) ± SEM
T1 construct: from tissue; hippocampus per the main-text methods
T1 sequence (P19327 1-422): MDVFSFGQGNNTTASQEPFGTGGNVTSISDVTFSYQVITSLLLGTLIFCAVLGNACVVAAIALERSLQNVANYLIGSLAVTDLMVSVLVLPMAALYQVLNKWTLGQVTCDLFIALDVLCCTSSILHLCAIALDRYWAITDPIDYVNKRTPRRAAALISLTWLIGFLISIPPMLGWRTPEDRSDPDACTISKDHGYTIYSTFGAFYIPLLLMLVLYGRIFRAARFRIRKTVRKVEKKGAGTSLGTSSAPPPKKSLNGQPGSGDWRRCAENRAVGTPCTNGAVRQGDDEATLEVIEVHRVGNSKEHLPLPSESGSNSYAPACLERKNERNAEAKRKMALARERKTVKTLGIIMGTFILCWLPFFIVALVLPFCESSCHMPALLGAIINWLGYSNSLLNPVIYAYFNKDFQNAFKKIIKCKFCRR
Procedure: (§1) Male Sprague–Dawley rats were decapitated and their brains removed and placed on ice. The hippocampi (for the functional 5-HT1A receptor assay) or frontal cortexes (for the competitive 5-HT2A and 5-HT2C receptor assays) were dissected and homogenized with a glass homogenizer in 30 vol. ice-cold TED buffer (50 mMTris-HCl, 1 mM EDTA, 1 mM dithiotheritol, pH 7.4). Next, the homogenate was centrifuged at 21 000g for 30 min at 4 °C. The pellet was suspended in 30 vol TED buffer (pH 7.4) and incubated in a water bath for 10 min at 37 °C to remove endogenous ligands. The suspension was centrifuged again at 21 000g for 30 min at 4 °C. The pellet was resuspended in 30 vol TED buffer (pH 7.4) and the centrifugation step was repeated. The final pellet was suspended in 10 vol 50 mM Tris-HCl (pH 7.4) and stored at −80 °C until use.[47]
(§2) The [^35S]GTPγS assay was performed according to the method described previously.[49] […] Nonspecific binding was determined with 100 μM of unlabeled GTPγS. The reaction mixture was incubated for 90 min at 36 °C in a volume of 250 μL. […] Next, 96-well Unifilter Plates (PerkinElmer, USA) were presoaked for 1 h with 50 mM Tris-HCl (pH = 7.4) before harvesting. The reaction was terminated by vacuum filtration onto filter plates with the Filter Mate Harvester (PerkinElmer, USA). The samples were then rapidly washed with 2 mL of 50 mM Tris-HCl (pH = 7.4) buffer. The filter plates were dried for 2 h at 50 °C. After drying, 45 μL of EcoScint-20 scintillant (PerkinElmer, USA) was added to every well. The radioactivity was counted in a Trilux MicroBeta^2 counter (PerkinElmer, USA). The data were analyzed with GraphPad Prism 5.0 software (GraphPad Software, San Diego California USA, www.graphpad.com). To determine whether compound-stimulated [^35S]GTPγS binding involved 5-HT1A receptors, two protocols were used.
The curves were fitted with a one-site nonlinear regression model. Efficacy (Emax) and potency (pEC50) were calculated from […] from three separate experiments and expressed as the means ± SEM. […] The differences in compound potency and efficacy were evaluated with one-way ANOVA followed by the Bonferroni’s post-hoc test. The baseline G-protein stimulation was set at 100%. One, two, or three symbols represent statistical significance of 0.05, 0.01, and 0.001, respectively.

[2] = system: superficial dorsal horn neurons (lamina I–II); experiment: Patch-clamp recording from spinal cord slices; format: cell-based, mouse
Procedure: The Italian Ministry of Health approved all the experiments that were conducted on postnatal CD1 mice (P18–P25) in accordance with the Guide for the Care and Use of Laboratory Animals and the EU and Italian regulations on animal welfare. The spinal cord slices were obtained following the procedure described previously.[69],[70] Briefly, the animals were anesthetized with isoflurane and decapitated, the spinal cord and vertebrae were rapidly removed and placed in ice-cold dissecting Krebs’ solution (composition in mM:125 NaCl, 2.5 KCl, 1.25 NaH2PO4, 26 NaHCO3, 25 glucose, 6 MgCl2, 1.5 CaCl2, and 1 kynurenic acid, pH 7.4, 320 mOsm), bubbled with 95% O2, 5% CO2. The lumbar spinal cord was isolated, embedded in an agarose block (low melting point agarose 3%, Thermo Fisher Scientific, Waltham, USA), and transverse slices (500 μm thick) were obtained using a vibrating microtome (WPI, Sarasota, USA). The slices were incubated in oxygenated incubation Krebs’ solution (the same as dissecting but without kynurenic acid) at 35 °C for 30 min and used for recording. The Patch-clamp recording in whole-cell configuration was performed on lamina I–II neurons at room temperature. The slices were perfused at 2 mL/min with recording Krebs’solution (in mM: 125 NaCl, 2.5 KCl, 1.25 NaH2PO4, 26 NaHCO3, 25 glucose, 1 MgCl2, and 2 CaCl2, pH 7.4, 320 mOsm). Recordings of post-synaptic currents (EPSCs) were performed in voltage clamp, by using an intracellular solution with the following composition (in mM): 120 potassium methanesulfonate, 10 NaCl, 10 EGTA, 1 CaCl2, 10 HEPES, 5 ATP-Mg, pH adjusted to 7.2 with KOH, osmolarity 300 mOsm. 8-OH-DPAT was obtained from Sigma-Aldrich (Saint Louis, USA). The data were recorded and acquired using a Multiclamp 700A amplifier and the pClamp 10 software (Molecular Devices, Sunnyvale, USA). The sampling rate was 10 kHz, and the data were filtered at 2 kHz. The data were analyzed off-line using pClamp10 software and Minianalysis (Synaptosoft, USA). The data are expressed as the mean ± SEM and differences were considered significant for p < 0.05. The statistical significance for the effect on EPSC frequency was determined using the Kolmogorov–Smirnov test on individual neurons.

5-HT1AR [3] = biological target: T1, 5-HT1AR; experiment: Effect of WAY100635 on compound-stimulated [35S]GTPγS binding (Tables SI-1, SI-2); format: biochemical
Procedure: as §2, with “used. […]” for “used.”
WAY).) Results were expressed as means ± SEM. Curves were fitted with a one-site sigmoidal dose-response equation […]
calculated as the ratio of pEC50 in the presence of WAY100635 divided by the pEC50 of agonist alone. Basal 5-HT1AR activation was set to 100%. Results were analyzed with one-way ANOVA followed by the Bonferroni’s post-hoc test. […]
WAY100635 (10^-10 M - 10^-5 M, WAY). Results were expressed as means ± SEM. Curves were fitted with a one-site sigmoidal dose-response equation and Emax (%) of the EC80 agonist concentration alone and in the presence of WAY100635 were determined from 2 independent experiments. Basal (no ligand added) [35S]GTPγS binding was set to 100%. Results were analyzed with one-way ANOVA followed by the Bonferroni’s post-hoc test.

Male Swiss CB1 mice = experiment: Formalin test; format: in vivo, mouse
Procedure: Male Swiss CB1 mice (Envigo, S. Pietro al Natisone (UD)) weighing 25–30 g were used. The animals were kept at a constant room temperature (25 ± 1 °C) under a 12:12 h light and dark cycle, with free access to food and water. Each mouse was used for only one experiment. […] All the tests were performed blind to treatment.
The formalin (5%, 10 μL; Sigma-Aldrich) was injected subcutaneously into the plantar side of the right hind paw.[68] After injection, the mice were immediately placed in a plexiglas box: the total time (in seconds) spent on licking or biting the injected hind paw was recorded every 5 min at selected intervals, 0–10 (phase I) and 10–60 (phase II) min, in the different experimental groups, as an indicator of nociceptive behavior. […] A mean response was then calculated for each phase. […] A vehicle solution containing 10% DMSO was given as a control. Morphine was used as positive control. The test compound and vehicle were […] (i.p.) administered (5 mL/kg) 15 min before the formalin. […] The data are expressed as mean values (SEM). Analyses of variance (two-way repeated measures ANOVA followed by post hoc Bonferroni test) were performed to assess significance using the Instat 3.0 software (GraphPad Software, San Diego, CA). p < 0.05 was considered significant.

5-HT2CR = biological target: T2, 5-HT2CR (Rattus norvegicus, UniProt P08909); experiment: Radioligand binding at 5-HT2C on rat frontal cortex membranes; conditions: rat frontal cortex membranes; [3H]mesulergine
T2 construct: from tissue; host or cells: frontal cortex of male Sprague-Dawley rats
T2 sequence (P08909 33-460): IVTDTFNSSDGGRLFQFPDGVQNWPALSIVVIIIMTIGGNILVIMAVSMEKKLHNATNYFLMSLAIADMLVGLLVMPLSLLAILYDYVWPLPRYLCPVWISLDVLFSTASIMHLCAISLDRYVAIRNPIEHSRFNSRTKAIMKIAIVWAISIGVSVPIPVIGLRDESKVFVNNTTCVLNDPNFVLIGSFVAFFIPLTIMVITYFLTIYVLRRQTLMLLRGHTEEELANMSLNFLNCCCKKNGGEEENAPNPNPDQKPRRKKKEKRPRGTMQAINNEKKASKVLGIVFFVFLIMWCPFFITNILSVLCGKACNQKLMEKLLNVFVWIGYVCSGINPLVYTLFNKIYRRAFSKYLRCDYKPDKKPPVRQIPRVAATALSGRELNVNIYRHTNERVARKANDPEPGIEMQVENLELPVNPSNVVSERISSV
Procedure: as §1
The 5-HT2A assay was performed according to a previously described protocol with some modifications.[48] […] Nonspecific binding was determined in the presence of 10 μM mianserin. For the 5-HT2C assay, the frontal cortex homogenates (250 μg protein/mL) were incubated in triplicate with 1 nM [^3H]mesulergine for 60 min at 36 °C in a 50 mM Tris-HCl (pH 7.4) buffer containing 0.1% ascorbate, 10 mM MgCl2, 10 μM pargyline, 100 nM spiperone, and increasing concentrations (10^–10–10^–5 M) of the compound tested. After incubation, the reaction mixture was deposited onto UniFilter-96 GF/B plates, with the aid of a FilterMate-96 Harvester. The filter plates were presoaked with 0.4% PEI for 1 h. Next, each filter well was washed with 1.75 mL of 50 mM Tris-HCl (pH 7.4) and left to dry on a heating block set to 50 °C for 2 h. Then, 45 μL of Microscint-20 scintillation fluid was added to each filter well and left to equilibrate overnight. The filter-bound radioactivity was counted in a MicroBeta^2 Microplate Counter. Curves were fitted with a one-site sigmoidal dose–response equation and pKi for each compound was calculated with the Cheng-Pursoff equation. Results were analyzed with one-way ANOVA followed by the Bonferroni’s posthoc test. The results are expressed as means ± SEM of three independent experiments.

In the case of `CCCN(CCC)C1CCc2cccc(O)c2C1` (stereo not drawn) [8-OH-DPAT, reference compound], the Emax (5-HT1AR [1]) is reported as 152 ± 2.4%, the “neurons showing sEPSC frequency decrease” value ([2]; 10 μM) is reported as 4 out of 11 and the “neurons showing slow outward current” value ([2]; bath application 10 μM, voltage clamp −60 mV) is reported as 6 out of the 11. It also gave an Emax (5-HT1AR [3]; read-out: Emax (%) ± SEM of EC80 agonist concentration alone) of 142 ± 19.4% and an Emax (5-HT1AR [3]; read-out: Emax (%) ± SEM, compound alone) of 152 ± 2.4%.

With `CN1CC[C@]23c4c5ccc(O)c4O[C@H]2[C@@H](O)C=C[C@H]3[C@H]1C5` [Morphine, reference compound] the “analgesic effect in first and second phases of the formalin test” value (Male Swiss CB1 mice; 10 mg/kg i.p., formalin 5% 10 μL intraplantar) was “essentially eliminated the response to formalin”.

With `COc1cc(OC)c(C(=O)CCCCN2CCC3(CC2)NC(=O)NC3=O)cc1NS(=O)(=O)c1ccc(C(F)(F)F)cc1` [RS-102221, reference compound] the “5-HT2C pKi ± SEM” value (5-HT2CR) was 8.34 ± 0.12.

For `COc1ccccc1N1CCN(CCN(C(=O)C2CCCCC2)c2ccccn2)CC1` [WAY-100635, reference compound], the “licking response after formalin, per se” value (Male Swiss CB1 mice; 3 mg/kg i.p.) was “did not alter the licking response”.

`NCCc1c[nH]c2ccc(O)cc12` [serotonin, reference compound] gave an Emax (5-HT1AR [1]; rat hippocampal membranes, basal 5-HT1AR activation set to 100%) of 192 ± 4.9%.
